Results reported in patent publication US10525058B2, “Urea derivative or pharmacologically acceptable salt thereof” (KYORIN PHARMACEUTICAL CO., LTD., priority 2015, dated 2020).

Tests used:
[1] = system: neutrophilic infiltration in mouse lung; test: Effect on lipopolysaccharide-induced neutrophilic infiltration in mouse lung (BAL fluid neutrophil count); assay type: in vivo; details: oral, BALB/c male mouse, 30 min before LPS aerosol, BAL neutrophil count after 5 hours relative to control
Description: Effect of lipopolysaccharide induction on neutrophilic infiltration in mouse lung A compound to be tested was orally administrated to a mouse (BALB/c, male), and after 30 minutes, the mouse was placed in a plastic container. Lipopolysaccharide (0.3 mg/mL) dissolved in physiological saline was aerosolized with an ultrasonic wave nebulizer (NE-U17, OMRON Corporation), and exposed to the mouse for 10 minutes. After 5 hours, the anesthetized mouse was sacrificed by exsanguination. […] This operation was repeated 3 times, to obtain a BAL fluid. The BAL fluid was centrifuged at 4° C. and ×200 g for 5 minutes, and the pellet was suspended in a physiological saline containing 0.1% BSA. The number of white blood cells was counted using Turks solution with a microscope, and the total white blood cell count was calculated. The white blood cells were fixed on a glass slide using Cytospin 3 (Thermo BioAnalysis Japan K. K.). The cells were stained with Diff-Quik (SYSMEX INTERNATIONAL REAGENTS CO., LTD.), and the number thereof was counted with a microscope, and the neutrophil ratio was calculated. The neutrophil ratio was multiplied by the total white blood cell count to calculate the total neutrophil count. An effect of the compound to be tested represents a percentage (%) of suppression ratio relative to the neutrophil count in a control.

human FPRL1 = target: T1, human FPRL1 (Homo sapiens, UniProt P25090); test: Measurement test of agonist activity on human FPRL1 (calcium mobilization in HEK293 cells transfected with human FPRL1 and Gα15); assay type: cell-based; details: Fluo-4 NW, molar concentration giving 50% maximum activation, read-out: Efficacy EC50
T1 construct: expressed in transfected cells; host or cells: HEK293 (JCRB9068, NIBIO), transient co-transfection with pCMV-script vectors
T1 sequence (P25090 1-351): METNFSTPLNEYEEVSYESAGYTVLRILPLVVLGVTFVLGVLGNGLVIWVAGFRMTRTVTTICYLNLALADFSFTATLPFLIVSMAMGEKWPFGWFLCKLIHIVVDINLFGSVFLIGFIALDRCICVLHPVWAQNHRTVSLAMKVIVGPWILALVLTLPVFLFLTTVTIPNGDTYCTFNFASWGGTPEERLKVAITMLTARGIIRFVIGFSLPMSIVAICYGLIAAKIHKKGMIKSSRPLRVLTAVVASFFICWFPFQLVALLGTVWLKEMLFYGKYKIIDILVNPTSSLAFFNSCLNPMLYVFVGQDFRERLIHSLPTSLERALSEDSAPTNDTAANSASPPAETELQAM
From the text: Measurement test of agonist activity on human FPRL1
(1-1) Construction of Human FPRL1 Expression Vector
Human FPRL (SEQ ID NO: 3) was amplified in a PCR reaction from cDNA derived from a monocytic leukemia cell line THP-1 (TIB-202, ATCC) as a template using a forward primer shown in SEQ ID NO: 1, a reverse primer shown in SEQ ID NO: 2, and KOD-plus-ver. 2 (KOD-211, TOYOBO CO., LTD.). […] 2 (LGK-201, TOYOBO CO., LTD.). The ligation product was transformed into DH5α (DNA-901, TOYOBO CO., LTD.), cultured on a 100 μg/mL kanamycin-containing LB medium, and purified with HiSpeed Plasmid Maxi Kit (12662, QIAGEN).
(1-2) Construction of Human Gα15 Expression Vector
2. The amplified PCR product and pCMV-script vector were digested with Hind III and XhoI, and the resultant digest was ligated with Ligation high ver. 2. The ligation product was transformed into DH5α, cultured on a 100 μg/mL kanamycin-containing LB medium, and purified with HiSpeed Plasmid Maxi Kit.
(2-1) Method for Culturing and Subculturing HEK293
HEK293 (JCRB9068, NIBIO) was cultured in an incubator at 5% CO2 and 37° C. using DMEM (11885-092, GIBCO) containing 10% FBS and 1cPenicillin-Streptomycin (15140-122, GIBCO).
(2-2) Introduction of Human FPRL1 and Gal5 Expression Vectors
The cells were inoculated in a Collagen Type 1 coated 6-well plate (4810-010, IWAKI) to 5×10^5 cells/2.5 mL/well and cultured overnight. On the next day, human FPRL1 and Gα15 expression vectors were introduced using Lipofectamine 2000 transfection reagent (11668-019, Life technologies). First, the human FPRL1 and Gal5 expression vectors were diluted with Opti-MEM I Reduced Serum Medium (31985-070, GIBCO) to 2 μg/250 μL/well and Lipofectamine 2000 transfection reagent was diluted with Opti-MEM I Reduced Serum Medium to be 4 μL/250 μL/well. The vectors and reagent were softly diffused, and incubated at room temperature for 5 minutes. The vector solution was mixed with Lipofectamine 2000 transfection reagent in equal amounts. In order to form a complex of the vectors and Lipofectamine 2000 transfection reagent, the mixture was incubated at room temperature for 20 minutes, and added at 500 μL/well to the medium of inoculated cells. The treated cells were cultured for 24 hours, inoculated in Poly-D-Lysine coated 96-well plate (356640, BD Biosciences) at a cell density of 7×10^4 cells/100 μL/well, and cultured for another 24 hours. The resultant cells were used in a measurement test of calcium mobilization in the cells.
(3) Evaluation of Agonist Activity on Human FPRL1 (Test of Calcium Mobilization in Cell)
An appropriate amount of each test compound was first weighed, and dissolved to 10^−2 M by addition of dimethyl sulfoxide (DMSO). […] The plate dispensed with compound solutions was set in Flexstation (Molecular Devices, LLC.) until measurement.
Subsequently, 10 mL of assay buffer and 100 μL of probenecid solution (dissolved by addition of 1 mL of assay buffer to a 250 mM stock) were sufficiently mixed and dissolved in Fluo-4 NW dye mix. The medium of cells inoculated on the previous day was removed, the dissolved Fluo-4 NW dye mix was added in an amount of 90 μL/well, and a reaction was caused in the dark at 37° C. for 45 minutes. The cells after the reaction and chips for addition of the compound were set in Flexstation, and variation in fluorescence intensity over time after addition of the compound was measured [amount of added compound=10 μL (final concentration: 10^−5 M to 10^−12 M), excitation wavelength: 485 nm, measured wavelength: 525 nm, 1.5 sec×54 read]. A value was calculated by subtracting a base value during addition of DMSO from the maximum value of relative fluorescence unit, and analyzed. All the measurement data were analyzed with Prism 4 that was a data analysis tool.

COc1ccc([C@@H]2COCC2NC(=O)Nc2ccc(Cl)cc2)cc1 (single isomer, unassigned; (+)) [Example 2-1 Isomer A, (+)-cis-1-(4-Chlorophenyl)-3-[4-(4-methoxyphenyl)tetrahydrofuran-3-yl]urea]
Suppression Ratio ([1]; dose 3 mg/kg): 82%
EC50 (human FPRL1): 0.54 nM

COc1ccc([C@@H]2COCC2NC(=O)Nc2ccc(F)cc2)cc1 (single isomer, unassigned; (+)) [Example 3-1 Isomer A, (+)-cis-1-(4-Fluorophenyl)-3-[4-(4-methoxyphenyl)tetrahydrofuran-3-yl]urea]
Suppression Ratio ([1]; dose 3 mg/kg): 80%
EC50 (human FPRL1): 0.62 nM

COc1cc(F)c([C@@H]2CN3CCON=C3[C@H]2NC(=O)Nc2ccc(F)cc2)c(F)c1 (relative stereo) [Example 7-7, 1-[(7R*,8S*)-7-(2,6-difluoro-4-methoxyphenyl)-4,6,7,8-tetrahydro-3H-pyrrolo[2,1-c][1,2,4]-oxadiazin-8-yl]-3-(4-fluorophenyl)urea]
Suppression Ratio ([1]; dose 1 mg/kg): 97%
EC50 (human FPRL1): 0.02 nM
